Results published in ChEMBL document CHEMBL5154747, “Discovery of new carbonic anhydrase IX inhibitors as anticancer agents by toning the hydrophobic and hydrophilic rims of the active site to encounter the dual-tail approach” (Eur J Med Chem, 2022).

System: CCRF-CEM
Assay: Anticancer activity against human CCRF-CEM cells assessed as cell growth inhibition at 10 uM incubated for 48 hrs by SRB assay relative to control
Format: functional
Conditions: read-out: GI

SMILES	inhibition of growth at 10 µM [%]
NNc1nc(Nc2ccccc2)nc(Nc2ccc(S(N)(=O)=O)cc2)n1	< 10

System: HL-60(TB)
Assay: Anticancer activity against human HL-60(TB) cells assessed as cell growth inhibition at 10 uM incubated for 48 hrs by SRB assay relative to control
Format: functional
Conditions: read-out: GI

SMILES	inhibition of growth at 10 µM [%]
NNc1nc(Nc2ccccc2)nc(Nc2ccc(S(N)(=O)=O)cc2)n1	< 10

System: K562
Assay: Anticancer activity against human K562 cells assessed as cell growth inhibition at 10 uM incubated for 48 hrs by SRB assay relative to control
Format: functional
Conditions: read-out: GI

SMILES	inhibition of growth at 10 µM [%]
NNc1nc(Nc2ccccc2)nc(Nc2ccc(S(N)(=O)=O)cc2)n1	< 10

System: RPMI-8226
Assay: Anticancer activity against human RPMI-8226 cells assessed as cell growth inhibition at 10 uM incubated for 48 hrs by SRB assay relative to control
Format: functional
Conditions: read-out: GI

SMILES	inhibition of growth at 10 µM [%]
NNc1nc(Nc2ccccc2)nc(Nc2ccc(S(N)(=O)=O)cc2)n1	< 10

System: SR
Assay: Anticancer activity against human SR cells assessed as cell growth inhibition at 10 uM incubated for 48 hrs by SRB assay relative to control
Format: functional
Conditions: read-out: GI

SMILES	inhibition of growth at 10 µM [%]
NNc1nc(Nc2ccccc2)nc(Nc2ccc(S(N)(=O)=O)cc2)n1	32

System: EKVX
Assay: Anticancer activity against human EKVX cells assessed as cell growth inhibition at 10 uM incubated for 48 hrs by SRB assay relative to control
Format: functional
Conditions: read-out: GI

SMILES	inhibition of growth at 10 µM [%]
NNc1nc(Nc2ccccc2)nc(Nc2ccc(S(N)(=O)=O)cc2)n1	< 10

System: HOP-92
Assay: Anticancer activity against human HOP-92 cells assessed as cell growth inhibition at 10 uM incubated for 48 hrs by SRB assay relative to control
Format: functional
Conditions: read-out: GI

SMILES	inhibition of growth at 10 µM [%]
NNc1nc(Nc2ccccc2)nc(Nc2ccc(S(N)(=O)=O)cc2)n1	< 10

System: NCI-H23
Assay: Anticancer activity against human NCI-H23 cells assessed as cell growth inhibition at 10 uM incubated for 48 hrs by SRB assay relative to control
Format: functional
Conditions: read-out: GI

SMILES	inhibition of growth at 10 µM [%]
NNc1nc(Nc2ccccc2)nc(Nc2ccc(S(N)(=O)=O)cc2)n1	< 10

System: NCI-H460
Assay: Anticancer activity against human NCI-H460 cells assessed as cell growth inhibition at 10 uM incubated for 48 hrs by SRB assay relative to control
Format: functional
Conditions: read-out: GI

SMILES	inhibition of growth at 10 µM [%]
NNc1nc(Nc2ccccc2)nc(Nc2ccc(S(N)(=O)=O)cc2)n1	< 10

System: NCI-H522
Assay: Anticancer activity against human NCI-H522 cells assessed as cell growth inhibition at 10 uM incubated for 48 hrs by SRB assay relative to control
Format: functional
Conditions: read-out: GI

SMILES	inhibition of growth at 10 µM [%]
NNc1nc(Nc2ccccc2)nc(Nc2ccc(S(N)(=O)=O)cc2)n1	< 10

System: COLO 205
Assay: Anticancer activity against human COLO 205 cells assessed as cell growth inhibition at 10 uM incubated for 48 hrs by SRB assay relative to control
Format: functional
Conditions: read-out: GI

SMILES	inhibition of growth at 10 µM [%]
NNc1nc(Nc2ccccc2)nc(Nc2ccc(S(N)(=O)=O)cc2)n1	< 10

System: HCC 2998
Assay: Anticancer activity against human HCC 2998 cells assessed as cell growth inhibition at 10 uM incubated for 48 hrs by SRB assay relative to control
Format: functional
Conditions: read-out: GI

SMILES	inhibition of growth at 10 µM [%]
NNc1nc(Nc2ccccc2)nc(Nc2ccc(S(N)(=O)=O)cc2)n1	< 10

System: HCT-116
Assay: Anticancer activity against human HCT-116 cells assessed as cell growth inhibition at 10 uM incubated for 48 hrs by SRB assay relative to control
Format: functional
Conditions: read-out: GI

SMILES	inhibition of growth at 10 µM [%]
NNc1nc(Nc2ccccc2)nc(Nc2ccc(S(N)(=O)=O)cc2)n1	< 10

System: HCT-15
Assay: Anticancer activity against human HCT-15 cells assessed as cell growth inhibition at 10 uM incubated for 48 hrs by SRB assay relative to control
Format: functional
Conditions: read-out: GI

SMILES	inhibition of growth at 10 µM [%]
NNc1nc(Nc2ccccc2)nc(Nc2ccc(S(N)(=O)=O)cc2)n1	< 10

System: HT-29
Assay: Anticancer activity against human HT-29 cells assessed as cell growth inhibition at 10 uM incubated for 48 hrs by SRB assay relative to control
Format: functional
Conditions: read-out: GI

SMILES	inhibition of growth at 10 µM [%]
NNc1nc(Nc2ccccc2)nc(Nc2ccc(S(N)(=O)=O)cc2)n1	< 10

System: SW-620
Assay: Anticancer activity against human SW-620 cells assessed as cell growth inhibition at 10 uM incubated for 48 hrs by SRB assay relative to control
Format: functional
Conditions: read-out: GI

SMILES	inhibition of growth at 10 µM [%]
NNc1nc(Nc2ccccc2)nc(Nc2ccc(S(N)(=O)=O)cc2)n1	< 10

System: SF-539
Assay: Anticancer activity against human SF-539 cells assessed as cell growth inhibition at 10 uM incubated for 48 hrs by SRB assay relative to control
Format: functional
Conditions: read-out: GI

SMILES	inhibition of growth at 10 µM [%]
NNc1nc(Nc2ccccc2)nc(Nc2ccc(S(N)(=O)=O)cc2)n1	< 10

System: SNB-19
Assay: Anticancer activity against human SNB-19 cells assessed as cell growth inhibition at 10 uM incubated for 48 hrs by SRB assay relative to control
Format: functional
Conditions: read-out: GI

SMILES	inhibition of growth at 10 µM [%]
NNc1nc(Nc2ccccc2)nc(Nc2ccc(S(N)(=O)=O)cc2)n1	< 10

System: SNB-75
Assay: Anticancer activity against human SNB-75 cells assessed as cell growth inhibition at 10 uM incubated for 48 hrs by SRB assay relative to control
Format: functional
Conditions: read-out: GI

SMILES	inhibition of growth at 10 µM [%]
NNc1nc(Nc2ccccc2)nc(Nc2ccc(S(N)(=O)=O)cc2)n1	< 10

System: U-251
Assay: Anticancer activity against human U-251 cells assessed as cell growth inhibition at 10 uM incubated for 48 hrs by SRB assay relative to control
Format: functional
Conditions: read-out: GI

SMILES	inhibition of growth at 10 µM [%]
NNc1nc(Nc2ccccc2)nc(Nc2ccc(S(N)(=O)=O)cc2)n1	< 10

System: LOX IMVI
Assay: Anticancer activity against human LOX IMVI cells assessed as cell growth inhibition at 10 uM incubated for 48 hrs by SRB assay relative to control
Format: functional
Conditions: read-out: GI

SMILES	inhibition of growth at 10 µM [%]
NNc1nc(Nc2ccccc2)nc(Nc2ccc(S(N)(=O)=O)cc2)n1	< 10

System: Malme-3M
Assay: Anticancer activity against human Malme-3M cells assessed as cell growth inhibition at 10 uM incubated for 48 hrs by SRB assay relative to control
Format: functional
Conditions: read-out: GI

SMILES	inhibition of growth at 10 µM [%]
NNc1nc(Nc2ccccc2)nc(Nc2ccc(S(N)(=O)=O)cc2)n1	< 10

System: SK-MEL-28
Assay: Anticancer activity against human SK-MEL-28 cells assessed as cell growth inhibition at 10 uM incubated for 48 hrs by SRB assay relative to control
Format: functional
Conditions: read-out: GI

SMILES	inhibition of growth at 10 µM [%]
NNc1nc(Nc2ccccc2)nc(Nc2ccc(S(N)(=O)=O)cc2)n1	< 10

System: SK-MEL-5
Assay: Anticancer activity against human SK-MEL-5 cells assessed as cell growth inhibition at 10 uM incubated for 48 hrs by SRB assay relative to control
Format: functional
Conditions: read-out: GI

SMILES	inhibition of growth at 10 µM [%]
NNc1nc(Nc2ccccc2)nc(Nc2ccc(S(N)(=O)=O)cc2)n1	< 10

System: UACC-62
Assay: Anticancer activity against human UACC-62 cells assessed as cell growth inhibition at 10 uM incubated for 48 hrs by SRB assay relative to control
Format: functional
Conditions: read-out: GI

SMILES	inhibition of growth at 10 µM [%]
NNc1nc(Nc2ccccc2)nc(Nc2ccc(S(N)(=O)=O)cc2)n1	< 10

System: IGROV-1
Assay: Anticancer activity against human IGROV-1 cells assessed as cell growth inhibition at 10 uM incubated for 48 hrs by SRB assay relative to control
Format: functional
Conditions: read-out: GI

SMILES	inhibition of growth at 10 µM [%]
NNc1nc(Nc2ccccc2)nc(Nc2ccc(S(N)(=O)=O)cc2)n1	< 10

System: OVCAR-3
Assay: Anticancer activity against human OVCAR-3 cells assessed as cell growth inhibition at 10 uM incubated for 48 hrs by SRB assay relative to control
Format: functional
Conditions: read-out: GI

SMILES	inhibition of growth at 10 µM [%]
NNc1nc(Nc2ccccc2)nc(Nc2ccc(S(N)(=O)=O)cc2)n1	< 10

System: OVCAR-5
Assay: Anticancer activity against human OVCAR-5 cells assessed as cell growth inhibition at 10 uM incubated for 48 hrs by SRB assay relative to control
Format: functional
Conditions: read-out: GI

SMILES	inhibition of growth at 10 µM [%]
NNc1nc(Nc2ccccc2)nc(Nc2ccc(S(N)(=O)=O)cc2)n1	< 10

System: OVCAR-8
Assay: Anticancer activity against human OVCAR-8 cells assessed as cell growth inhibition at 10 uM incubated for 48 hrs by SRB assay relative to control
Format: functional
Conditions: read-out: GI

SMILES	inhibition of growth at 10 µM [%]
NNc1nc(Nc2ccccc2)nc(Nc2ccc(S(N)(=O)=O)cc2)n1	< 10

System: SK-OV-3
Assay: Anticancer activity against human SK-OV-3 cells assessed as cell growth inhibition at 10 uM incubated for 48 hrs by SRB assay relative to control
Format: functional
Conditions: read-out: GI

SMILES	inhibition of growth at 10 µM [%]
NNc1nc(Nc2ccccc2)nc(Nc2ccc(S(N)(=O)=O)cc2)n1	< 10

System: 786-0
Assay: Anticancer activity against human 786-0 cells assessed as cell growth inhibition at 10 uM incubated for 48 hrs by SRB assay relative to control
Format: functional
Conditions: read-out: GI

SMILES	inhibition of growth at 10 µM [%]
NNc1nc(Nc2ccccc2)nc(Nc2ccc(S(N)(=O)=O)cc2)n1	< 10

System: ACHN
Assay: Anticancer activity against human ACHN cells assessed as cell growth inhibition at 10 uM incubated for 48 hrs by SRB assay relative to control
Format: functional
Conditions: read-out: GI

SMILES	inhibition of growth at 10 µM [%]
NNc1nc(Nc2ccccc2)nc(Nc2ccc(S(N)(=O)=O)cc2)n1	< 10

System: CAKI-1
Assay: Anticancer activity against human CAKI-1 cells assessed as cell growth inhibition at 10 uM incubated for 48 hrs by SRB assay relative to control
Format: functional
Conditions: read-out: GI

SMILES	inhibition of growth at 10 µM [%]
NNc1nc(Nc2ccccc2)nc(Nc2ccc(S(N)(=O)=O)cc2)n1	< 10

System: RXF 393
Assay: Anticancer activity against human RXF 393 cells assessed as cell growth inhibition at 10 uM incubated for 48 hrs by SRB assay relative to control
Format: functional
Conditions: read-out: GI

SMILES	inhibition of growth at 10 µM [%]
NNc1nc(Nc2ccccc2)nc(Nc2ccc(S(N)(=O)=O)cc2)n1	< 10

System: SN12C
Assay: Anticancer activity against human SN12C cells assessed as cell growth inhibition at 10 uM incubated for 48 hrs by SRB assay relative to control
Format: functional
Conditions: read-out: GI

SMILES	inhibition of growth at 10 µM [%]
NNc1nc(Nc2ccccc2)nc(Nc2ccc(S(N)(=O)=O)cc2)n1	< 10

System: UO-31
Assay: Anticancer activity against human UO-31 cells assessed as cell growth inhibition at 10 uM incubated for 48 hrs by SRB assay relative to control
Format: functional
Conditions: read-out: GI

SMILES	inhibition of growth at 10 µM [%]
NNc1nc(Nc2ccccc2)nc(Nc2ccc(S(N)(=O)=O)cc2)n1	13

System: Hs-578T
Assay: Anticancer activity against human Hs-578T cells assessed as cell growth inhibition at 10 uM incubated for 48 hrs by SRB assay relative to control
Format: functional
Conditions: read-out: GI

SMILES	inhibition of growth at 10 µM [%]
NNc1nc(Nc2ccccc2)nc(Nc2ccc(S(N)(=O)=O)cc2)n1	< 10

System: T47D
Assay: Anticancer activity against human T47D cells assessed as cell growth inhibition at 10 uM incubated for 48 hrs by SRB assay relative to control
Format: functional
Conditions: read-out: GI

SMILES	inhibition of growth at 10 µM [%]
NNc1nc(Nc2ccccc2)nc(Nc2ccc(S(N)(=O)=O)cc2)n1	< 10

System: MDA-MB-468
Assay: Anticancer activity against human MDA-MB-468 cells assessed as cell growth inhibition at 10 uM incubated for 48 hrs by SRB assay relative to control
Format: functional
Conditions: read-out: GI

SMILES	inhibition of growth at 10 µM [%]
NNc1nc(Nc2ccccc2)nc(Nc2ccc(S(N)(=O)=O)cc2)n1	< 10
